Reference: the kinase profiling compilation of Christmann-Franck et al. (2016)

Experiments:
Assay in all cases: KINOMEscan competition binding
Details in all cases: compound 10.0 µM
[1] = target: MYLK (human) (UniProt Q15746)
[2] = system: KIT (human), P10721 [D816V]
[3] = target: BMPR1A (human) (UniProt P36894)
[4] = target: CDKL2 (human) (UniProt Q92772)
[5] = target: FYN (human) (UniProt P06241)
[6] = target: MLTK (human) (UniProt Q9NYL2)
[7] = target: MYO3B (human) (UniProt Q8WXR4)
[8] = target: SRC (human) (UniProt P12931)
[9] = target: PRKD2 (human) (UniProt Q9BZL6)
[10] = target: STK11 (human) (UniProt Q15831)
[11] = target: CAMK4 (human) (UniProt Q16566)
[12] = target: ABL2 (human) (UniProt P42684)
[13] = target: CDK8 (human) (UniProt P49336)
[14] = target: MAPKAPK5 (human) (UniProt Q8IW41)
[15] = target: PRKACA (human) (UniProt P17612)
[16] = target: CDK17 (human) (UniProt Q00537)
[17] = target: MAP2K6 (human) (UniProt P52564)
[18] = target: PDGFRB (human) (UniProt P09619)
[19] = target: STK33 (human) (UniProt Q9BYT3)
[20] = target: CAMKK1 (human) (UniProt Q8N5S9)
[21] = target: PIK3CD (human) (UniProt O00329)
[22] = target: RPS6KA1 KD1 (human) (UniProt Q15418)
Sequence of RPS6KA1 KD1 (human) (Q15418 whole entry, looked up): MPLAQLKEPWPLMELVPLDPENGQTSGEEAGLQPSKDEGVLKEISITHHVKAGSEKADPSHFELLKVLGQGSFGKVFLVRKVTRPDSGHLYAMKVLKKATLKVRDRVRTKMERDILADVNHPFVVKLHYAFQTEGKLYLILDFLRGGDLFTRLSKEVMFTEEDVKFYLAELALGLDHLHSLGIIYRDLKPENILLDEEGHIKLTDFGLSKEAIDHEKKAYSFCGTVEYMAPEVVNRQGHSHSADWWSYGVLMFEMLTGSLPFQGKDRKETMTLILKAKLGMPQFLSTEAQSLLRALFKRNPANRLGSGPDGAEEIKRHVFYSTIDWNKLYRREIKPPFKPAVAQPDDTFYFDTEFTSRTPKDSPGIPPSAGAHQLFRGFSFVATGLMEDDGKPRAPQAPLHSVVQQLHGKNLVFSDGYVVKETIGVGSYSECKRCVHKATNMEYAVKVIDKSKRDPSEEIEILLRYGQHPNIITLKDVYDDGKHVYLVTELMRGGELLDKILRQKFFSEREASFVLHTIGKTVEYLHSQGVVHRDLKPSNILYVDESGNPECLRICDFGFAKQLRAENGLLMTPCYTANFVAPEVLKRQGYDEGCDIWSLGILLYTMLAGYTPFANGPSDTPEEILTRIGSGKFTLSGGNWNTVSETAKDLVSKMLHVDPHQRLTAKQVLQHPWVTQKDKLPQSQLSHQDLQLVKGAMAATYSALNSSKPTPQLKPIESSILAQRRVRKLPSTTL

[23] = target: CDK11B (human) (UniProt P21127)
Sequence of CDK11B (human) (P21127 whole entry, looked up): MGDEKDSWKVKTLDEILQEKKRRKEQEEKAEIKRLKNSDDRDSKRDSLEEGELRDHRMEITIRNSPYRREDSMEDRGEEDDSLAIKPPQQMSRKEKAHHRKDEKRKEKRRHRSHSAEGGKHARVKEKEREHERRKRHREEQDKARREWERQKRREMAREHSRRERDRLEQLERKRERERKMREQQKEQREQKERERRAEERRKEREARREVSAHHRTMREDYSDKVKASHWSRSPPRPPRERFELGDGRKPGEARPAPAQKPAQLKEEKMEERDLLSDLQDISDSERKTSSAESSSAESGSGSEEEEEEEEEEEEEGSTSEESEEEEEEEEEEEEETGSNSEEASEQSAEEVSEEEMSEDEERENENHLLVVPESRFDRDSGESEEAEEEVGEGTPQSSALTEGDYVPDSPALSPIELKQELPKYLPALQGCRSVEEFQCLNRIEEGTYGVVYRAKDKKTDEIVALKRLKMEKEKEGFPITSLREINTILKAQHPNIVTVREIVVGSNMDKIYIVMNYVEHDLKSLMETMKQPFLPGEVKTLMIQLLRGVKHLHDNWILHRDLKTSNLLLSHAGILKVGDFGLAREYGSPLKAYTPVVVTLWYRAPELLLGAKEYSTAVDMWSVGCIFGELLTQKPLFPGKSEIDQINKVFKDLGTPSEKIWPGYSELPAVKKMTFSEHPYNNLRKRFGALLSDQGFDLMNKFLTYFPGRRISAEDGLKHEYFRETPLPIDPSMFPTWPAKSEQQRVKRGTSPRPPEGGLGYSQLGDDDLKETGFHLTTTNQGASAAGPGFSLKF

[24] = target: MAP2K3 (human) (UniProt P46734)
[25] = target: TYK2 JH2 pseudokinase (human) (UniProt P29597)
Sequence of TYK2 JH2 pseudokinase (human) (P29597 whole entry, looked up): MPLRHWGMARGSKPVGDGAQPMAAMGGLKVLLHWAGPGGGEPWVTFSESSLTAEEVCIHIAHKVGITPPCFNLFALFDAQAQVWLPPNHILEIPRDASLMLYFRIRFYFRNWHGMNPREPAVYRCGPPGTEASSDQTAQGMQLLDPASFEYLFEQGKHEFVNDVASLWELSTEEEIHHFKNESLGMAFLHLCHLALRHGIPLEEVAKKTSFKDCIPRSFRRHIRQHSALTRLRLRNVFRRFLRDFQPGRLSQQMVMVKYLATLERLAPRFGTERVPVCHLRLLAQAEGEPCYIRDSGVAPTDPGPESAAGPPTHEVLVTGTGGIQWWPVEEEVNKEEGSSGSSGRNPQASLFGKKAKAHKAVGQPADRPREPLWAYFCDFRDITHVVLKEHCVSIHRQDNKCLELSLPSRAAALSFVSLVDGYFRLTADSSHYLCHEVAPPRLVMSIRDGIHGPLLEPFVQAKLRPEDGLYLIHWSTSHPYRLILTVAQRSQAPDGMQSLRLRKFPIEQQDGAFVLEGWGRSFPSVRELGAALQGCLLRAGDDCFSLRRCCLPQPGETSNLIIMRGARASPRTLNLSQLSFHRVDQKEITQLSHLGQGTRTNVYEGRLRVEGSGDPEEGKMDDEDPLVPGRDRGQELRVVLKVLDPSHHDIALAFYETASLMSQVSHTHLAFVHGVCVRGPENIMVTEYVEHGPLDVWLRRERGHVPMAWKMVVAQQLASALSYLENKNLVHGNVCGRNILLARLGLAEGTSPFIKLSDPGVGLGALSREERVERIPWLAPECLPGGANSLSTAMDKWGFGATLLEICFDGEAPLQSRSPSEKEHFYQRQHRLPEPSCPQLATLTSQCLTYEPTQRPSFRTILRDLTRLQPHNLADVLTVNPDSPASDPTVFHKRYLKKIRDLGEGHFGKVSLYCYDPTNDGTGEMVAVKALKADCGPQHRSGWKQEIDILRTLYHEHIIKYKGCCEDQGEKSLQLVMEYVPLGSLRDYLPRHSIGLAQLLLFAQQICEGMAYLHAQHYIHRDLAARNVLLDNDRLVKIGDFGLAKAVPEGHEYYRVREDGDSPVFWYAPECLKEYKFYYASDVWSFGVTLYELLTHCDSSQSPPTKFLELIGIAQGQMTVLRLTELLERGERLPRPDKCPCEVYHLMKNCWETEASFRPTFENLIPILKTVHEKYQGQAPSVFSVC

[26] = target: CDK18 (human) (UniProt Q07002)
[27] = target: NEK9 (human) (UniProt Q8TD19)
[28] = target: CSNK1D (human) (UniProt P48730)
Sequence of CSNK1D (human) (P48730 whole entry, looked up): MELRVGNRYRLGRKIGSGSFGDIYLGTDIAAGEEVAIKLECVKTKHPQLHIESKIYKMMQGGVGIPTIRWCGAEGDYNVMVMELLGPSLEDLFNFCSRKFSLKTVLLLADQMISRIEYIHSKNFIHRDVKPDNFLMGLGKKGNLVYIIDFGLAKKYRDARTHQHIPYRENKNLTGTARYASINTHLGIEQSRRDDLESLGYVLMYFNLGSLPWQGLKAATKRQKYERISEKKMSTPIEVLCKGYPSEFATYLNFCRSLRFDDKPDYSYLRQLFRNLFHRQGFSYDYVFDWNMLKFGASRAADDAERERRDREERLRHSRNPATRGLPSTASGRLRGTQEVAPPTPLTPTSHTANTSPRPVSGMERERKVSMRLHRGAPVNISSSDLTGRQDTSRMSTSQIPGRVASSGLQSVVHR

[29] = target: IRAK3 (human) (UniProt Q9Y616)
Sequence of IRAK3 (human) (Q9Y616 whole entry, looked up): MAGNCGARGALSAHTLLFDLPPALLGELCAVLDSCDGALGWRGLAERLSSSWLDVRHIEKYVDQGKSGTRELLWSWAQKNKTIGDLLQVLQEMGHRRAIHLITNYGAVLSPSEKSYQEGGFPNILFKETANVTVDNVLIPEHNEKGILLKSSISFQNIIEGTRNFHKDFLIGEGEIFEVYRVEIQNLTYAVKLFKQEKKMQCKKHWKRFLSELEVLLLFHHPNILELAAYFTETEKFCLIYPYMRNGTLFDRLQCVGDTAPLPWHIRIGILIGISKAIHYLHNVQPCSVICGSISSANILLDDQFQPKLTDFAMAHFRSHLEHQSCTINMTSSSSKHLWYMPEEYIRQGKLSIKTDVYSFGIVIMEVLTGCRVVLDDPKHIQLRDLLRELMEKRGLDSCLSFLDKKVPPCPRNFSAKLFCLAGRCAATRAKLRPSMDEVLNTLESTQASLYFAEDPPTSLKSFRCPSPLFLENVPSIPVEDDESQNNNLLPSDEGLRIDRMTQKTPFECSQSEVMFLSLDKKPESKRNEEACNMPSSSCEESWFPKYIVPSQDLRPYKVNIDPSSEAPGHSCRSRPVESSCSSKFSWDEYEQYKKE

[30] = target: PAK4 (human) (UniProt O96013)
[31] = target: TEC (human) (UniProt P42680)
[32] = target: MAP3K3 (human) (UniProt Q99759)
[33] = target: RET (human) (UniProt P07949)
[34] = target: PIM1 (human) (UniProt P11309)
[35] = target: CDC42BPB (human) (UniProt Q9Y5S2)
[36] = target: BMPR2 (human) (UniProt Q13873)
[37] = target: EIF2AK2 (human) (UniProt P19525)
[38] = target: EPHB2 (human) (UniProt P29323)
[39] = system: ABL1 (human), P00519 [M351T]
[40] = target: MARK1 (human) (UniProt Q9P0L2)

Sequence of BMPR1A (human) (P36894 whole entry, looked up): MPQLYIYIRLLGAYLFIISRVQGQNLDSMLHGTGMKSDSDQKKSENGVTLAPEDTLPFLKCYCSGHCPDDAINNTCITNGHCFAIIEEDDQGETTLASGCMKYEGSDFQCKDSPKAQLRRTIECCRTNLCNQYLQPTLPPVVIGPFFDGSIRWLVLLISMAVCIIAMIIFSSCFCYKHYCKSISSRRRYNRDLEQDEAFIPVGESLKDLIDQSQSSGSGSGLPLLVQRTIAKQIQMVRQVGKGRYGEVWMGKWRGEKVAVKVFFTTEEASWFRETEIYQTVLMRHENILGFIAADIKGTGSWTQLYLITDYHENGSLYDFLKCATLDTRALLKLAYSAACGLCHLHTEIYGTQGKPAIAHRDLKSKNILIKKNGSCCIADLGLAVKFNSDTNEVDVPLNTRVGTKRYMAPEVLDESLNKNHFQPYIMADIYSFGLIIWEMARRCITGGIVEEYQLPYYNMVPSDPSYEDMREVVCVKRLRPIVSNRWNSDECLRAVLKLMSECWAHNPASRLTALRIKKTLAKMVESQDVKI
Sequence of FYN (human) (P06241 whole entry, looked up): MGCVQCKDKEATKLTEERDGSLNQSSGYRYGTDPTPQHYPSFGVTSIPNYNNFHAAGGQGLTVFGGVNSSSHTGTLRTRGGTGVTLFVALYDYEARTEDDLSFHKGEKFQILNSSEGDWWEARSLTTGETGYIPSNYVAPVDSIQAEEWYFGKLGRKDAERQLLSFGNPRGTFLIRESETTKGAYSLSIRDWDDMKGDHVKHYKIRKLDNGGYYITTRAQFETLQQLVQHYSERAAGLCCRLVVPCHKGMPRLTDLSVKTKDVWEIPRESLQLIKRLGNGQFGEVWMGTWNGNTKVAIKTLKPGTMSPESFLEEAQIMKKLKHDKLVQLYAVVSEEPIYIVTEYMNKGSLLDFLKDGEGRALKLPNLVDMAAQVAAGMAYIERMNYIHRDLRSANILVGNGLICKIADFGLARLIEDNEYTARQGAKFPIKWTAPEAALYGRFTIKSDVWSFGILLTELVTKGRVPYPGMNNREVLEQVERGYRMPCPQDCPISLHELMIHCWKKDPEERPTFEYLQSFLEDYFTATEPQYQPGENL

SMILES: COc1cc(N2CCN(C)CC2)ccc1Nc1nc(N)c(C(=O)c2c(Cl)cccc2Cl)s1
- kinase still bound, per cent of control [1]: 18%
- kinase still bound, per cent of control [2]: 92%
- kinase still bound, per cent of control [3]: 100%
- kinase still bound, per cent of control [4]: 93%
- kinase still bound, per cent of control [5]: 89%
- kinase still bound, per cent of control [6]: 100%
- kinase still bound, per cent of control [7]: 94%
- kinase still bound, per cent of control [8]: 100%
- kinase still bound, per cent of control [9]: 78%
- kinase still bound, per cent of control [10]: 100%
- kinase still bound, per cent of control [11]: 99%
- kinase still bound, per cent of control [12]: 82%
- kinase still bound, per cent of control [13]: 100%
- kinase still bound, per cent of control [14]: 100%
- kinase still bound, per cent of control [15]: 91%
- kinase still bound, per cent of control [16]: 42%
- kinase still bound, per cent of control [17]: 85%
- kinase still bound, per cent of control [18]: 100%
- kinase still bound, per cent of control [19]: 83%
- kinase still bound, per cent of control [20]: 6.3%
- kinase still bound, per cent of control [21]: 98%
- kinase still bound, per cent of control [22]: 100%
- kinase still bound, per cent of control [23]: 5.3%
- kinase still bound, per cent of control [24]: 79%
- kinase still bound, per cent of control [25]: 60%
- kinase still bound, per cent of control [26]: 78%
- kinase still bound, per cent of control [27]: 100%
- kinase still bound, per cent of control [28]: 100%
- kinase still bound, per cent of control [29]: 90%
- kinase still bound, per cent of control [30]: 100%
- kinase still bound, per cent of control [31]: 69%
- kinase still bound, per cent of control [32]: 76%
- kinase still bound, per cent of control [33]: 97%
- kinase still bound, per cent of control [34]: 100%
- kinase still bound, per cent of control [35]: 100%
- kinase still bound, per cent of control [36]: 82%
- kinase still bound, per cent of control [37]: 75%
- kinase still bound, per cent of control [38]: 100%
- kinase still bound, per cent of control [39]: 84%

SMILES: Cn1c(=O)n(-c2ccc(C(C)(C)C#N)cc2)c2c3cc(-c4cnc5ccccc5c4)ccc3ncc21
- kinase still bound, per cent of control [1]: 100%
- kinase still bound, per cent of control [2]: 100%
- kinase still bound, per cent of control [3]: 100%
- kinase still bound, per cent of control [4]: 28%
- kinase still bound, per cent of control [5]: 100%
- kinase still bound, per cent of control [6]: 100%
- kinase still bound, per cent of control [7]: 100%
- kinase still bound, per cent of control [8]: 100%
- kinase still bound, per cent of control [9]: 100%
- kinase still bound, per cent of control [10]: 100%
- kinase still bound, per cent of control [11]: 100%
- kinase still bound, per cent of control [12]: 100%
- kinase still bound, per cent of control [13]: 100%
- kinase still bound, per cent of control [14]: 100%
- kinase still bound, per cent of control [15]: 100%
- kinase still bound, per cent of control [16]: 100%
- kinase still bound, per cent of control [17]: 100%
- kinase still bound, per cent of control [19]: 100%
- kinase still bound, per cent of control [20]: 100%
- kinase still bound, per cent of control [21]: 7.2%
- kinase still bound, per cent of control [22]: 100%
- kinase still bound, per cent of control [23]: 100%
- kinase still bound, per cent of control [24]: 100%
- kinase still bound, per cent of control [25]: 100%
- kinase still bound, per cent of control [26]: 100%
- kinase still bound, per cent of control [27]: 100%
- kinase still bound, per cent of control [28]: 100%
- kinase still bound, per cent of control [29]: 100%
- kinase still bound, per cent of control [30]: 100%
- kinase still bound, per cent of control [31]: 100%
- kinase still bound, per cent of control [32]: 100%
- kinase still bound, per cent of control [33]: 100%
- kinase still bound, per cent of control [34]: 100%
- kinase still bound, per cent of control [40]: 100%
- kinase still bound, per cent of control [35]: 100%
- kinase still bound, per cent of control [36]: 100%
- kinase still bound, per cent of control [37]: 100%
- kinase still bound, per cent of control [38]: 100%
- kinase still bound, per cent of control [39]: 100%

SMILES: O=C(NOC[C@H](O)CO)c1ccc(F)c(F)c1Nc1ccc(I)cc1F
- kinase still bound, per cent of control [1]: 96%
- kinase still bound, per cent of control [2]: 87%
- kinase still bound, per cent of control [3]: 100%
- kinase still bound, per cent of control [4]: 87%
- kinase still bound, per cent of control [5]: 64%
- kinase still bound, per cent of control [6]: 88%
- kinase still bound, per cent of control [7]: 99%
- kinase still bound, per cent of control [8]: 69%
- kinase still bound, per cent of control [9]: 100%
- kinase still bound, per cent of control [10]: 83%
- kinase still bound, per cent of control [11]: 100%
- kinase still bound, per cent of control [12]: 90%
- kinase still bound, per cent of control [13]: 100%
- kinase still bound, per cent of control [14]: 100%
- kinase still bound, per cent of control [15]: 72%
- kinase still bound, per cent of control [16]: 95%
- kinase still bound, per cent of control [17]: 100%
- kinase still bound, per cent of control [18]: 66%
- kinase still bound, per cent of control [19]: 79%
- kinase still bound, per cent of control [20]: 100%
- kinase still bound, per cent of control [21]: 40%
- kinase still bound, per cent of control [22]: 100%
- kinase still bound, per cent of control [23]: 97%
- kinase still bound, per cent of control [24]: 89%
- kinase still bound, per cent of control [25]: 100%
- kinase still bound, per cent of control [26]: 100%
- kinase still bound, per cent of control [27]: 82%
- kinase still bound, per cent of control [28]: 100%
- kinase still bound, per cent of control [29]: 100%
- kinase still bound, per cent of control [30]: 100%
- kinase still bound, per cent of control [31]: 100%
- kinase still bound, per cent of control [32]: 98%
- kinase still bound, per cent of control [33]: 90%
- kinase still bound, per cent of control [34]: 100%
- kinase still bound, per cent of control [40]: 100%
- kinase still bound, per cent of control [35]: 83%
- kinase still bound, per cent of control [36]: 92%
- kinase still bound, per cent of control [37]: 100%
- kinase still bound, per cent of control [38]: 73%
